Test results as given in US9617276B2, “Compounds and methods for treating AIDS and HIV infections” (priority 2009, dated 2017).
Read-outs that look alike come from different tables or passages of the source.

Legend:
HIV-1 protease = biological target: T1, HIV-1 protease (Human immunodeficiency virus type 1 group M subtype B, UniProt P04585); assay: HIV protease enzyme inhibition, fluorometric assay of Toth and Marshall; format: biochemical; conditions: read-out: Ki
T1 construct: A simple, continuous fluorometric assay for HIV protease
Method: (§1) The inhibitory potencies of acyclic and cyclic inhibitors were measured by the assay protocol of Toth and Marshall (Toth, M. V.; Marshall, G. R. A simple, continuous fluorometric assay for HIV protease. Int. J. Pep. Protien Res. 1990, 36, 544-55).

HIV-1 = assay: antiviral assay (IC50); format: cell-based; conditions: read-out: IC50
Method: as §1

[1] = Human immunodeficiency virus 1, Table 1, acyclic compounds
[2] = Human immunodeficiency virus 1, Table 2
[3] = Human immunodeficiency virus 1, Table 3, E and Z isomers
[4] = Human immunodeficiency virus 1, Table 4

C=CCCCCOc1cc(OC)ccc1S(=O)(=O)N(CC(C)CC=C)C[C@@H](O)[C@H](Cc1ccccc1)NC(=O)O[C@H]1CO[C@H]2OCC[C@H]21 (single isomer, unassigned) [Compound 19b]
Ki (HIV-1 protease; Table 4): < 0.01 µM
IC50 (HIV-1; Table 4): < 0.1 µM

C=CCCCCOc1cc(OC)ccc1S(=O)(=O)N(CC(C)CC=C)C[C@@H](O)[C@H](Cc1ccccc1)NC(=O)O[C@H]1CO[C@H]2OCC[C@H]21 (single isomer, unassigned) [Compound 19c]
Ki (HIV-1 protease; Table 4): < 0.01 µM
IC50 (HIV-1; Table 4): > 1 µM

C=CCCCCOc1cc(OC)ccc1S(=O)(=O)N(CCCCC=C)CC(O)C(Cc1ccccc1)NC(=O)OC1COC2OCCC12 (stereo not shown) [Compound 13a]
Ki (HIV-1 protease; Table 1, acyclic compounds): < 0.1 µM
Ki (HIV-1 protease): 0.016 µM
IC50 (HIV-1; [1]): > 1 µM

C=CCCCCN(CC(O)C(Cc1ccccc1)NC(=O)OC1COC2OCCC12)S(=O)(=O)c1ccc(OC)cc1OCCCC=C (stereo not shown) [Compound 13b]
Ki (HIV-1 protease; Table 1, acyclic compounds): < 0.1 µM
Ki (HIV-1 protease): 0.011 µM
IC50 (HIV-1; [1]): > 1 µM
IC50 (HIV-1; Human immunodeficiency virus 1): > 1 µM

C=CCCCCN(CC(O)C(Cc1ccccc1)NC(=O)OC1COC2OCCC12)S(=O)(=O)c1ccc(OC)cc1OCCC=C (stereo not shown) [Compound 13c]
Ki (HIV-1 protease; Table 1, acyclic compounds): < 0.01 µM

C=CCCCCN(CC(O)C(Cc1ccccc1)NC(=O)OC1COC2OCCC12)S(=O)(=O)c1ccc(OC)cc1OCC=C (stereo not shown) [Compound 13d]
Ki (HIV-1 protease; Table 1, acyclic compounds): < 0.01 µM

C=CCCCCOc1cc(OC)ccc1S(=O)(=O)N(CC=C)CC(O)C(Cc1ccccc1)NC(=O)OC1COC2OCCC12 (stereo not shown) [Compound 13e]
Ki (HIV-1 protease; Table 1, acyclic compounds): < 0.01 µM
Ki (HIV-1 protease): 0.0017 µM
IC50 (HIV-1; [1]): < 0.1 µM

C=CCCCOc1cc(OC)ccc1S(=O)(=O)N(CC=C)CC(O)C(Cc1ccccc1)NC(=O)OC1COC2OCCC12 (stereo not shown) [Compound 13f]
Ki (HIV-1 protease; Table 1, acyclic compounds): < 0.001 µM
IC50 (HIV-1; [1]): < 0.1 µM

C=CCCOc1cc(OC)ccc1S(=O)(=O)N(CC=C)CC(O)C(Cc1ccccc1)NC(=O)OC1COC2OCCC12 (stereo not shown) [Compound 13g]
Ki (HIV-1 protease; Table 1, acyclic compounds): < 0.001 µM

COc1ccc2c(c1)OCCCCC=CCCCCN(CC(O)C(Cc1ccccc1)NC(=O)OC1COC3OCCC13)S2(=O)=O (stereo not shown) [Compound 14a-E]
Ki (HIV-1 protease; Table 3, E and Z isomers): < 0.001 µM
IC50 (HIV-1; Table 3, E and Z isomers): < 0.1 µM

COc1ccc2c(c1)OCCCCC=CCCCCN(CC(O)C(Cc1ccccc1)NC(=O)OC1COC3OCCC13)S2(=O)=O (stereo not shown) [Compound 14a-Z]
Ki (HIV-1 protease; Table 3, E and Z isomers): < 0.001 µM
IC50 (HIV-1; Table 3, E and Z isomers): > 1 µM

COc1ccc2c(c1)OCCCCC=CCCCCN(CC(O)C(Cc1ccccc1)NC(=O)OC1COC3OCCC13)S2(=O)=O (stereo not shown) [Compound 14a]
Ki (HIV-1 protease; Table 2): < 0.001 µM
IC50 (HIV-1; [2]): < 0.1 µM

COc1ccc2c(c1)OCCCC=CCCCCN(CC(O)C(Cc1ccccc1)NC(=O)OC1COC3OCCC13)S2(=O)=O (stereo not shown) [Compound 14b-Z]
Ki (HIV-1 protease; Table 3, E and Z isomers): < 0.001 µM
IC50 (HIV-1; [3]): < 0.01 µM

COc1ccc2c(c1)OCCC=CCCCCN(CC(O)C(Cc1ccccc1)NC(=O)OC1COC3OCCC13)S2(=O)=O (stereo not shown) [Compound 14c-E]
IC50 (HIV-1; [3]): < 0.01 µM

COc1ccc2c(c1)OCCCCC=CCN(CC(O)C(Cc1ccccc1)NC(=O)OC1COC3OCCC13)S2(=O)=O (stereo not shown) [Compound 14e]
Ki (HIV-1 protease; Table 2): < 0.001 µM
IC50 (HIV-1; [2]): < 0.1 µM

COc1ccc2c(c1)OCCCC=CCN(CC(O)C(Cc1ccccc1)NC(=O)OC1COC3OCCC13)S2(=O)=O (stereo not shown) [Compound 14f]
Ki (HIV-1 protease; Table 2): < 0.001 µM
IC50 (HIV-1; [2]): < 0.1 µM

COc1ccc2c(c1)OCCC=CCN(CC(O)C(Cc1ccccc1)NC(=O)OC1COC3OCCC13)S2(=O)=O (stereo not shown) [Compound 14g]
Ki (HIV-1 protease; Table 2): < 0.001 µM

COc1ccc2c(c1)OCC=CCN(CC(O)C(Cc1ccccc1)NC(=O)OC1COC3OCCC13)S2(=O)=O (stereo not shown) [Compound 14h]
Ki (HIV-1 protease; Table 2): < 0.01 µM

COc1ccc2c(c1)OCCCCCCCCCCN(CC(O)C(Cc1ccccc1)NC(=O)OC1COC3OCCC13)S2(=O)=O (stereo not shown) [Compound 15a]
Ki (HIV-1 protease; Table 2): < 0.001 µM
IC50 (HIV-1; [2]): < 0.1 µM

COc1ccc2c(c1)OCCCCCCCCCN(CC(O)C(Cc1ccccc1)NC(=O)OC1COC3OCCC13)S2(=O)=O (stereo not shown) [Compound 15b]
Ki (HIV-1 protease; Table 2): < 0.001 µM
Ki (HIV-1 protease): < 0.0007 µM
IC50 (HIV-1; [2]): < 0.1 µM
IC50 (HIV-1; Human immunodeficiency virus 1): < 0.049 µM

COc1ccc2c(c1)OCCCCCCCN(CC(O)C(Cc1ccccc1)NC(=O)OC1COC3OCCC13)S2(=O)=O (stereo not shown) [Compound 15d]
Ki (HIV-1 protease; Table 2): < 0.001 µM
IC50 (HIV-1; [2]): < 0.1 µM

C=CCCCCOc1cc(OC)ccc1S(=O)(=O)N(C[C@@H](O)[C@H](Cc1ccccc1)NC(=O)O[C@H]1CO[C@H]2OCC[C@H]21)CC(C)(C)CC=C [Compound 19a, (3R,3aS,6aR)-Hexahydrofuro[2,3-b]furan-3-yl (2S,3R)-4-(N-(2,2-dimethylpent-4-enyl)-2-(hex-5-enyloxy)-4-methoxyphenylsulfonamido)-3-hydroxy-1-phenylbutan-2-ylcarbamate]
Ki (HIV-1 protease; Table 4): < 0.1 µM
IC50 (HIV-1; [4]): > 1 µM

COc1ccc2c(c1)OCCCCC=CCC(C)(C)CN(CC(O)C(Cc1ccccc1)NC(=O)OC1COC3OCCC13)S2(=O)=O (stereo not shown) [Compound 20a]
Ki (HIV-1 protease; Table 4): < 0.1 µM
IC50 (HIV-1; [4]): > 1 µM

COc1ccc2c(c1)OCCCCC=CCC(C)CN(CC(O)C(Cc1ccccc1)NC(=O)OC1COC3OCCC13)S2(=O)=O (stereo not shown) [Compound 20b]
Ki (HIV-1 protease; Table 4): < 0.01 µM
IC50 (HIV-1; Table 4): < 0.1 µM

COc1ccc2c(c1)OCCCCC=CCC(C)CN(CC(O)C(Cc1ccccc1)NC(=O)OC1COC3OCCC13)S2(=O)=O (stereo not shown) [Compound 20c]
Ki (HIV-1 protease; Table 4): < 0.001 µM
Ki (HIV-1 protease): 0.00031 µM
IC50 (HIV-1; Human immunodeficiency virus 1): 0.009 µM
IC50 (HIV-1; Table 4): < 0.01 µM

COc1ccc2c(c1)OCCCCCN1CCC[C@@H]1CN(C[C@@H](O)[C@H](Cc1ccccc1)NC(=O)O[C@H]1CO[C@H]3OCC[C@H]31)S2(=O)=O [Compound 00610A]
Ki (HIV-1 protease; Table 5): > 0.1 µM

C=CCN1CCCC1CN(C[C@@H](O)[C@H](Cc1ccccc1)NC(=O)O[C@H]1CO[C@H]2OCC[C@H]21)S(=O)(=O)c1ccc(OC)cc1 (stereo partly shown) [Compound 0649A]
Ki (HIV-1 protease; Table 5): < 0.01 µM

C=CCOc1cc(OC)ccc1S(=O)(=O)N(CC1CCCN1CC=C)C[C@@H](O)[C@H](Cc1ccccc1)NC(=O)O[C@H]1CO[C@H]2OCC[C@H]21 (stereo partly shown) [Compound 0659A]
Ki (HIV-1 protease; Table 5): > 0.1 µM

COc1ccc2c(c1)OCC/C=C/CN1CCC[C@H]1CN(C[C@@H](O)[C@H](Cc1ccccc1)NC(=O)O[C@H]1CO[C@H]3OCC[C@H]31)S2(=O)=O [Compound 00810A]
Ki (HIV-1 protease; Table 5): > 0.1 µM

COc1ccc2c(c1)OCC/C=C/CN1C(=O)CC[C@@H]1CN(C[C@@H](O)[C@H](Cc1ccccc1)NC(=O)OC(C)(C)C)S2(=O)=O [Compound 00910A]
Ki (HIV-1 protease; Table 5): > 0.1 µM

COc1ccc2c(c1)OCC/C=C\CN1C(=O)CC[C@@H]1CN(C[C@@H](O)[C@H](Cc1ccccc1)NC(=O)OC(C)(C)C)S2(=O)=O [Compound 01010A]
Ki (HIV-1 protease; Table 5): > 0.1 µM

C=CCN1C(=O)CC[C@@H]1CN(C[C@@H](O)[C@H](Cc1ccccc1)NC(=O)O[C@H]1CO[C@H]2OCC[C@H]21)S(=O)(=O)c1ccc(OC)cc1 [Compound 01110A]
Ki (HIV-1 protease; Table 5): < 0.001 µM

COc1ccc2c(c1)OCC/C=C/CN1C(=O)CC[C@@H]1CN(C[C@@H](O)[C@H](Cc1ccccc1)NC(=O)O[C@H]1CO[C@H]3OCC[C@H]31)S2(=O)=O [Compound 01210A]
Ki (HIV-1 protease; Table 5): < 0.001 µM

COc1ccc2c(c1)OCC/C=C\CN1C(=O)CC[C@@H]1CN(C[C@@H](O)[C@H](Cc1ccccc1)NC(=O)O[C@H]1CO[C@H]3OCC[C@H]31)S2(=O)=O [Compound 01310A]
Ki (HIV-1 protease; Table 5): < 0.1 µM

COc1ccc2c(c1)OCCC=CCN1C(=O)CC[C@H]1CN(C[C@@H](O)[C@H](Cc1ccccc1)NC(=O)O[C@H]1CO[C@H]3OCC[C@H]31)S2(=O)=O [Compound 01410A]
Ki (HIV-1 protease; Table 5): > 0.1 µM

COc1ccc2c(c1)OCCCCCN1C(=O)CC[C@H]1CN(C[C@@H](O)[C@H](Cc1ccccc1)NC(=O)O[C@H]1CO[C@H]3OCC[C@H]31)S2(=O)=O [Compound 02110A]
Ki (HIV-1 protease; Table 5): < 0.1 µM

COc1ccc2c(c1)OCCCCCN1C(=O)CC[C@@H]1CN(C[C@@H](O)[C@H](Cc1ccccc1)NC(=O)O[C@H]1CO[C@H]3OCC[C@H]31)S2(=O)=O [Compound 02210A]
Ki (HIV-1 protease; Table 5): < 0.001 µM
